In ChEMBL document CHEMBL1201862, “PubChem BioAssay data set” (2004):
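Cultured in 96-well plates, cells were exposed to test compound for 48 hours across five concentrations. GI50 is the concentration that inhibits growth by half.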 The source made the active and inactive calls. No stated cut-off is given here; in the data, active = GI50 up to about 1.1 µM and inactive = higher.

Assays:
Assay in all cases: DTP human tumour cell line panel, 48 h
SF-295 = system: SF-295
NCI-H460 = system: NCI-H460
SF-539 = system: SF-539
MOLT-4 = system: MOLT-4
SK-OV-3 = system: SK-OV-3
ACHN = system: ACHN
OVCAR-5 = system: OVCAR-5
SNB-75 = system: SNB-75
SW-620 = system: SW-620
RXF 393 = system: RXF 393
HCT-116 = system: HCT-116
HOP-62 = system: HOP-62
M14 = system: M14
NCI-H522 = system: NCI-H522
A498 = system: A498
HL-60 = system: HL-60
SR = system: SR

SMILES	GI50 (SF-295)	GI50 (NCI-H460)	GI50 (SF-539)	GI50 (MOLT-4)	GI50 (SK-OV-3)	GI50 (ACHN)	GI50 (OVCAR-5)	GI50 (SNB-75)	GI50 (SW-620)	GI50 (RXF 393)	GI50 (HCT-116)	GI50 (HOP-62)	GI50 (M14)	GI50 (NCI-H522)	GI50 (A498)	GI50 (HL-60)	GI50 (SR)
CC(=O)[C@@H]1C/C(=C\OCc2ccccc2)O[C@H]1C	> 100 µM (inactive)	> 100 µM (inactive)	> 100 µM (inactive)	> 100 µM (inactive)	> 100 µM (inactive)	> 100 µM (inactive)	> 100 µM (inactive)	> 100 µM (inactive)	> 100 µM (inactive)	> 100 µM (inactive)	> 100 µM (inactive)	> 100 µM (inactive)	> 100 µM (inactive)	> 100 µM (inactive)	> 100 µM (inactive)	–	–
CSc1ccc(Cc2cc(C(C)(C)C)cc(C(C)(C)C)c2O)cc1	17.6 µM (inactive)	14 µM (inactive)	17.3 µM (inactive)	8.07 µM (inactive)	27 µM (inactive)	15 µM (inactive)	3.11 µM (inactive)	16 µM (inactive)	16.1 µM (inactive)	13.3 µM (inactive)	10.8 µM (inactive)	20.6 µM (inactive)	15.1 µM (inactive)	–	15.6 µM (inactive)	8.67 µM (inactive)	8.75 µM (inactive)
COC(=O)/C(=N\Nc1nnc(C)n1N)C(C#N)c1ccc(Cl)cc1 (configuration not stated)	> 100 µM (inactive)	> 100 µM (inactive)	> 100 µM (inactive)	–	> 100 µM (inactive)	> 100 µM (inactive)	> 100 µM (inactive)	> 100 µM (inactive)	> 100 µM (inactive)	> 100 µM (inactive)	> 100 µM (inactive)	> 100 µM (inactive)	> 100 µM (inactive)	–	> 100 µM (inactive)	–	–
NC(=S)N/N=C(\C(=O)Nc1ccc(Cl)c(Cl)c1)C1=NN(c2ccccc2)C(c2cccc([N+](=O)[O-])c2)CC1=O (configuration not stated)	24.9 µM (inactive)	36.6 µM (inactive)	23.8 µM (inactive)	17.3 µM (inactive)	30.5 µM (inactive)	39.2 µM (inactive)	38.5 µM (inactive)	26.5 µM (inactive)	13.8 µM (inactive)	–	4.29 µM (inactive)	34.6 µM (inactive)	55.1 µM (inactive)	–	> 100 µM (inactive)	33.7 µM (inactive)	28.6 µM (inactive)
N#CC(C(=O)/C(=N\Nc1nc(S)nn1N)C(C#N)c1ccc(Cl)cc1)c1ccc(Cl)cc1 (configuration not stated)	> 100 µM (inactive)	> 100 µM (inactive)	> 100 µM (inactive)	–	> 100 µM (inactive)	> 100 µM (inactive)	> 100 µM (inactive)	> 100 µM (inactive)	> 100 µM (inactive)	> 100 µM (inactive)	> 100 µM (inactive)	> 100 µM (inactive)	> 100 µM (inactive)	–	> 100 µM (inactive)	–	–
N#Cc1ccc(C(C2C(=O)NC(=O)NC2=O)C2C(=O)NC(=O)NC2=O)cc1	> 100 µM (inactive)	> 100 µM (inactive)	> 100 µM (inactive)	> 100 µM (inactive)	> 100 µM (inactive)	> 100 µM (inactive)	> 100 µM (inactive)	–	> 100 µM (inactive)	–	> 100 µM (inactive)	> 100 µM (inactive)	> 100 µM (inactive)	> 100 µM (inactive)	–	> 100 µM (inactive)	> 100 µM (inactive)
CC(C)(C)C1=Cc2cc3cc(C(C)(C)C)[nH]c(=O)c3cc2S(=O)(=O)N1	28.5 µM (inactive)	37 µM (inactive)	–	28.1 µM (inactive)	31.2 µM (inactive)	30.3 µM (inactive)	33.7 µM (inactive)	37.8 µM (inactive)	21 µM (inactive)	–	20.5 µM (inactive)	22.3 µM (inactive)	14.6 µM (inactive)	15.3 µM (inactive)	53.2 µM (inactive)	21.2 µM (inactive)	23.7 µM (inactive)
O=C(N/N=C/c1cc(Br)ccc1O)N/N=C/c1cc(Br)ccc1O	3.84 µM (inactive)	3.1 µM (inactive)	0.877 µM (active)	1.97 µM (inactive)	69 µM (inactive)	4.6 µM (inactive)	2.84 µM (inactive)	–	1.73 µM (inactive)	> 100 µM (inactive)	–	4.46 µM (inactive)	–	1.99 µM (inactive)	> 100 µM (inactive)	1.25 µM (inactive)	3.5 µM (inactive)
CCN1CCN(c2ccc(Nc3ccnc4ccc5nn(C)nc5c34)cc2)CC1	12.4 µM (inactive)	5.41 µM (inactive)	13.8 µM (inactive)	4.5 µM (inactive)	13.8 µM (inactive)	10.6 µM (inactive)	15.9 µM (inactive)	13.2 µM (inactive)	4.22 µM (inactive)	10.2 µM (inactive)	5.58 µM (inactive)	13.1 µM (inactive)	16.1 µM (inactive)	11.1 µM (inactive)	–	94.8 µM (inactive)	4.22 µM (inactive)
O=C(O)CCc1nn2c(nc1=O)sc1ccc3ccccc3c12	> 100 µM (inactive)	> 100 µM (inactive)	> 100 µM (inactive)	> 100 µM (inactive)	> 100 µM (inactive)	> 100 µM (inactive)	–	> 100 µM (inactive)	> 100 µM (inactive)	> 100 µM (inactive)	> 100 µM (inactive)	> 100 µM (inactive)	> 100 µM (inactive)	–	–	> 100 µM (inactive)	> 100 µM (inactive)
Cc1cccc2c(=O)cc(-c3ccccc3)[nH]c12	4.09 µM (inactive)	3.95 µM (inactive)	5.69 µM (inactive)	4.54 µM (inactive)	–	12.2 µM (inactive)	–	1.73 µM (inactive)	2.6 µM (inactive)	3.62 µM (inactive)	5.06 µM (inactive)	3.64 µM (inactive)	3.45 µM (inactive)	–	5.3 µM (inactive)	3.25 µM (inactive)	6.93 µM (inactive)
COc1ccc(C(C#N)Cc2cc(OC)c(OC)c(OC)c2)cc1 (configuration not stated)	10.3 µM (inactive)	12.1 µM (inactive)	23.4 µM (inactive)	28.2 µM (inactive)	–	45.8 µM (inactive)	64.7 µM (inactive)	–	15.7 µM (inactive)	16.4 µM (inactive)	39.9 µM (inactive)	22.3 µM (inactive)	33.4 µM (inactive)	22.4 µM (inactive)	17.4 µM (inactive)	15 µM (inactive)	–
Cc1cc2c(=O)cc(-c3ccncc3)oc2c(C(N)=O)c1C	> 100 µM (inactive)	87.9 µM (inactive)	> 100 µM (inactive)	> 100 µM (inactive)	> 100 µM (inactive)	> 100 µM (inactive)	> 100 µM (inactive)	> 100 µM (inactive)	> 100 µM (inactive)	> 100 µM (inactive)	83.4 µM (inactive)	> 100 µM (inactive)	–	–	–	> 100 µM (inactive)	> 100 µM (inactive)
CCOC(=O)NC(=O)c1cn(C2OC(COC(=O)CCCCCCCCC(=O)OCC3OC(n4cc(C(=O)NC(=O)OCC)c(=O)[nH]c4=O)C(O)C3O)C(O)C2O)c(=O)[nH]c1=O (configuration not stated)	> 100 µM (inactive)	> 100 µM (inactive)	> 100 µM (inactive)	> 100 µM (inactive)	–	> 100 µM (inactive)	> 100 µM (inactive)	> 100 µM (inactive)	> 100 µM (inactive)	> 100 µM (inactive)	> 100 µM (inactive)	> 100 µM (inactive)	> 100 µM (inactive)	–	> 100 µM (inactive)	> 100 µM (inactive)	> 100 µM (inactive)
COC1OC(OC)C2C(c3c(C)cc(C)cc3C)=NOC12 (configuration not stated)	> 100 µM (inactive)	> 100 µM (inactive)	–	> 100 µM (inactive)	> 100 µM (inactive)	> 100 µM (inactive)	> 100 µM (inactive)	> 100 µM (inactive)	> 100 µM (inactive)	> 100 µM (inactive)	> 100 µM (inactive)	2.13 µM (inactive)	> 100 µM (inactive)	> 100 µM (inactive)	–	> 100 µM (inactive)	> 100 µM (inactive)
CCOC(=O)CCC(NC(=O)c1ccc(NC(OC)c2nc3cc(C(F)(F)F)ccc3nc2-c2ccccc2)cc1)C(=O)OCC (configuration not stated)	16.2 µM (inactive)	12.7 µM (inactive)	13.2 µM (inactive)	2.67 µM (inactive)	18.1 µM (inactive)	16.1 µM (inactive)	17.6 µM (inactive)	19.9 µM (inactive)	7.62 µM (inactive)	13.9 µM (inactive)	2.92 µM (inactive)	17 µM (inactive)	15.4 µM (inactive)	12.3 µM (inactive)	17.3 µM (inactive)	2.21 µM (inactive)	–
O=C(/C=C/c1ccc(-c2ccccc2)cc1)c1ccccc1	30.2 µM (inactive)	20.6 µM (inactive)	17.9 µM (inactive)	46.9 µM (inactive)	23.7 µM (inactive)	31.6 µM (inactive)	17.3 µM (inactive)	31 µM (inactive)	20.7 µM (inactive)	–	14.5 µM (inactive)	–	31.1 µM (inactive)	17.3 µM (inactive)	20 µM (inactive)	39.6 µM (inactive)	12.7 µM (inactive)
COc1ccc(/C=N\N2C(=O)Cc3ccccc32)cc1	51.6 µM (inactive)	> 100 µM (inactive)	39 µM (inactive)	41.4 µM (inactive)	> 100 µM (inactive)	> 100 µM (inactive)	> 100 µM (inactive)	17.9 µM (inactive)	> 100 µM (inactive)	–	> 100 µM (inactive)	64.1 µM (inactive)	86.1 µM (inactive)	–	> 100 µM (inactive)	> 100 µM (inactive)	–
